# Measured values from patent publication US20250115578A1, “AROMATIC FUSED RING NAV1.8 INHIBITOR, AND USE THEREOF” (CHENGDU KANGHONG PHARMACEUTICAL CO., LTD., priority 2022, published 2025).
# pIC50: −log10 of the molar value.
# Experiments:
# [1] = molecular target: hNav1.8 (Homo sapiens (Human), UniProt Q9Y5Y9); experiment: Manual patch clamp, Method 1 (CHO cell line stably expressing hNav1.8); format: cell-based; settings: for inhibition at 0.01 µM: 10 nM; for inhibition at 0.01 µM / inhibition at 0.1 µM: Method 1, CHO-hNav1.8, read-out: Inhibition rate of hNav1.8; for inhibition at 0.1 µM: 100 nM; for pIC50: Method 1, CHO-hNav1.8, manual patch clamp, resting state, read-out: IC50 inhibitory activity against hNav1.8
# hNav1.8, sequence (Q9Y5Y9 whole entry): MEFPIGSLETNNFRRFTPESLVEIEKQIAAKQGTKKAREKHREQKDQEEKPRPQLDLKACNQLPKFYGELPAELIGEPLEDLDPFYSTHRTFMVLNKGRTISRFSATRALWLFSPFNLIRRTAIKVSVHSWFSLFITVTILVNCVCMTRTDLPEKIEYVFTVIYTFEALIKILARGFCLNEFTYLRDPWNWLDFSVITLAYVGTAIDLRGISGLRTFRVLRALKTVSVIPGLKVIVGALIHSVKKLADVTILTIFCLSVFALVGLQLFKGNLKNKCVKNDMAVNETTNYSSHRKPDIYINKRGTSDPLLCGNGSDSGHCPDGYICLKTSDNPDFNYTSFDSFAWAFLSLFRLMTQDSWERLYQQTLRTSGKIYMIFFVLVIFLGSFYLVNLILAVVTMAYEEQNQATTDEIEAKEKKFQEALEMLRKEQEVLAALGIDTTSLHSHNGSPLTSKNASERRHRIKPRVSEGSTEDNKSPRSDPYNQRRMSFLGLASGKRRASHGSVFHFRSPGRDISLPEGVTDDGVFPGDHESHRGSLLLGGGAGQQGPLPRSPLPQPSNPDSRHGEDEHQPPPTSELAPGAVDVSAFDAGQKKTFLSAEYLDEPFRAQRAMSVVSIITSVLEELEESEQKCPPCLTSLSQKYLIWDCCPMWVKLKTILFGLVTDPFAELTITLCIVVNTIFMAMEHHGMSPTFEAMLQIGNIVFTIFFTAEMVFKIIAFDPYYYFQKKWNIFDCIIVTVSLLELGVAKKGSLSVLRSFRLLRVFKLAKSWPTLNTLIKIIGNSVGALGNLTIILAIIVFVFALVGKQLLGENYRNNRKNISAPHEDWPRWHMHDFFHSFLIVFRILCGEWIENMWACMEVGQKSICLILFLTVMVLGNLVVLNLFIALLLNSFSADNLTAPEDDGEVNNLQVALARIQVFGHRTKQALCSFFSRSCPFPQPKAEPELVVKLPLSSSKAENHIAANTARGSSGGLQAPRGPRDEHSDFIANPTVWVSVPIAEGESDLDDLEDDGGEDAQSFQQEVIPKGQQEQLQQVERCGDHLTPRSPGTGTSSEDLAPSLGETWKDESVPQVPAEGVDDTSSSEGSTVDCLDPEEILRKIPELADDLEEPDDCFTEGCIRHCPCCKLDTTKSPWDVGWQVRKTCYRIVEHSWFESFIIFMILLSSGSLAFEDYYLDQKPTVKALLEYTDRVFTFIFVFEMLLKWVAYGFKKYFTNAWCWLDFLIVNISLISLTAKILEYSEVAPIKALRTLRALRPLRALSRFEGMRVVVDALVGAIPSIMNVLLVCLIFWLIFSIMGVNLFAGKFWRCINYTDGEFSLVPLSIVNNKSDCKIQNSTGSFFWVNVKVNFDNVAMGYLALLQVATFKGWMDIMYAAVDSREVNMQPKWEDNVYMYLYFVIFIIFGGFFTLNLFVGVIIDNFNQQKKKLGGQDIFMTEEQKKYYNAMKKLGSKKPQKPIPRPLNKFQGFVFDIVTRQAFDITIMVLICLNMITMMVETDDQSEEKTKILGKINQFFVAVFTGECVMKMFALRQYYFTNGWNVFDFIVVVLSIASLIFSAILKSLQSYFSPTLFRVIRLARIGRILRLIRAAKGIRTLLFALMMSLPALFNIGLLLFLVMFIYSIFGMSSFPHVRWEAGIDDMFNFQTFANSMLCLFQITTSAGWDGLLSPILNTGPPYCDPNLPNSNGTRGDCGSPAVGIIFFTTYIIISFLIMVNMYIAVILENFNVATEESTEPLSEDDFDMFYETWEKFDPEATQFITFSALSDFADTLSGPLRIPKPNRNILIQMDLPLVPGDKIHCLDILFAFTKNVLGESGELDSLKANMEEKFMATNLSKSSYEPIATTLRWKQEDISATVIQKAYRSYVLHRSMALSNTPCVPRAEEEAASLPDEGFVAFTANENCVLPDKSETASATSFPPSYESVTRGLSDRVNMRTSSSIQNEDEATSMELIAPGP
# [2] = molecular target: Human Nav1.8 ion channel (Homo sapiens (Human), UniProt Q9Y5Y9); experiment: Manual patch clamp, Method 2 (HEK293 cells stably expressing human Nav1.8, resting state); format: cell-based; settings: Method 2, HEK293-hNav1.8, resting state, 1 μM TTX; read-out: IC50 inhibitory activity against hNav1.8
# [3] = Stability assay for human liver microsomes in vitro; format: in vitro ADME; settings: 1 μM compound, 0.5 mg/mL liver microsomes, read-out: Human liver microsome stability T1/2
# Method: • Human liver microsomes, purchased from Corning or Xenotech, stored in a −80° C. refrigerator. • Nicotinamide adenine dinucleotide phosphate (NADPH), Chem-impex international, 00616 • Control compounds: testosterone, diclofenac, propafenone
# • Water bath (HH-60, Guohua, Changzhou, China) • Pipette workstation (PP-550DS, Apricot, Covina, USA) • Centrifuge (5810R, Eppendorf, Hamburg, Germany) • Mass Spectrometer (Sciex API 4000, Singapore) • High Performance Liquid Chromatography (LC 20-AD, Shimadzu, Kyoto, Japan) • Sampler (ADDA, Apricot Designs, California, USA)
# • Stock solution: 10 mM in DMSO • Working solution concentration preparation: 10 mM stock solution was diluted to 100 μM with 100% acetonitrile (organic phase content: 99% ACN, 1% DMSO)
# Two 96-well incubation plates were named T60 incubation plate and NCF60 incubation plate.
# 445 μL microsomal working solution (liver microsomal protein concentration: 0.56 mg/mL) was added to the T60 and NCF60 incubation plates respectively, then the incubation plates above were placed in a water bath at 37° C. for pre-incubation approximately 10 minutes.
# After the pre-incubation finished, 5 μL of the test compound working solution was added to the T60 and NCF60 incubation plates respectively, and mixed well. 50 μL potassium phosphate buffer was added to each well on the NCF60 incubation plate to start the reaction. 180 μL termination solution (acetonitrile solution containing 200 ng/mL tolbutamide and 200 ng/mL labetalol) and 6 uL working solution of NADPH regeneration system were added to the TO termination plate, and 54 μL samples were removed from the T60 incubation plate to the TO termination plate (TO sample generated). The reaction was initiated by adding 44 μL of NADPH regenerating system working solution per well on the T60 incubation plate. Only 54 μL microsomal working solution, 6 uL NADPH regeneration system working solution, and 180 μL termination solution were added to the Blank plate. Therefore, in the samples of the test or control compounds, the final reaction concentration of the compounds, testosterone, diclofenac and propafenone was 1 μM, the concentration of the liver microsomes was 0.5 mg/mL, and the final concentration of DMSO and acetonitrile in the reaction system was 0.01% (v/v) and 0.99% (v/v), respectively.
# After incubation for an appropriate time (e.g. 5, 10, 20, 30, and 60 minutes), 180 μL of termination solution (acetonitrile solution containing 200 ng/mL tolbutamide and 200 ng/mL labetalol) was added to the sample hole of each termination plate, respectively. After that, 60 μL sample was removed from the T60 incubation plate to terminate the reaction.
# All sample plates were shaken evenly and centrifuged at 3220×g for 20 min. Then 80 μL supernatant was taken from each well and diluted to 240 μL pure water for LC-MS/MS analysis.
# All samples were injected for analysis.
Compound,inhibition at 0.01 µM [1] [%],inhibition at 0.1 µM [1] [%],pIC50 [1],pIC50 [2],half-life at 1 µM [3] [min]
"NC(=O)c1cc(NC(=O)c2nc3ccccc3nc2N2CCCC(F)(F)CC2)ccc1F [Example 02, N-(3-carbamoyl-4-fluorophenyl)-3-(4,4-difluoroazepan-1-yl)quinoxaline-2-carboxamide]",66.1,96.1,8.28,8.55,58.8
"NC(=O)c1cc(NC(=O)c2nc3ccccc3nc2N2CCCC(F)(F)CC2)ccn1 [Example 05, N-(2-carbamoylpyridin-4-yl)-3-(4,4-difluoroazepan-1-yl)quinoxaline-2-carboxamide]",46.7,90.5,8.05,7.67,93.7
"NC(=O)c1cc(NC(=O)c2cc3ccccc3nc2N2CCCC(F)(F)CC2)ccn1 [Example 08, N-(2-carbamoylpyridin-4-yl)-2-(4,4-difluoroazepan-1-yl)quinoline-3-carboxamide]",75.4,96.6,8.48,8.76,23
"NC(=O)c1cc(NC(=O)c2cc3cc(F)c(F)cc3nc2N2CCCC(F)(F)CC2)ccn1 [Example 10, N-(2-carbamoylpyridin-4-yl)-2-(4,4-difluoroazepan-1-yl)-6,7-difluoroquinoline-3-carboxamide]",95.5,99.1,9.11,9.34,92.7
"NS(=O)(=O)c1cc(NC(=O)c2cc3ccccc3nc2N2CCCC(F)(F)CC2)ccn1 [Example 14, 2-(4,4-difluoroazepan-1-yl)-N-(2-sulfamoylpyridine-4-yl) quinoline-3-carboxamide]",98,99.6,9.47,9.14,> 145
"NS(=O)(=O)c1cccc(NC(=O)c2cc3cc(F)c(F)cc3nc2N2CCCC(F)(F)CC2)c1 [Example 16, 2-(4,4-difluoroazepan-1-yl)-6,7-difluoro-N-(3-sulfamoylphenyl) quinoline-3-carboxamide]",99.8,100,10.08,10.15,41.3
